In ChEMBL document CHEMBL1201862, “PubChem BioAssay data set” (2004):
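In this assay, cells in 96-well plates receive the compound at five concentrations for 48 hours. Endpoints are linearly interpolated between the surrounding concentrations. GI50 is the concentration that inhibits growth by half.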 Calls of active or inactive are those of the source. Rule as the data show it: active = GI50 up to about 1.1 µM and inactive = higher.

Assays:
Experiment in all cases: NCI tumour cell line growth inhibition, 48 h
HL-60 = test system: HL-60
DMS-114 = test system: DMS-114
SNB-78 = test system: SNB-78
HOP-62 = test system: HOP-62
HOP-18 = test system: HOP-18
A498 = test system: A498
KM-20L2 = test system: KM-20L2
M19-MEL = test system: M19-MEL
DLD-1 = test system: DLD-1
NCI-H522 = test system: NCI-H522
HCC 2998 = test system: HCC 2998
NCI-H460 = test system: NCI-H460
SN12C = test system: SN12C
SNB-75 = test system: SNB-75
786-0 = test system: 786-0

| Structure (SMILES) | GI50 (HL-60) | GI50 (DMS-114) | GI50 (SNB-78) | GI50 (HOP-62) | GI50 (HOP-18) | GI50 (A498) | GI50 (KM-20L2) | GI50 (M19-MEL) | GI50 (DLD-1) | GI50 (NCI-H522) | GI50 (HCC 2998) | GI50 (NCI-H460) | GI50 (SN12C) | GI50 (SNB-75) | GI50 (786-0) |
| --- | --- | --- | --- | --- | --- | --- | --- | --- | --- | --- | --- | --- | --- | --- | --- |
| NC(Cc1cc(I)c(O)c(I)c1)C(=O)O (stereo not given) | 185 µM (inactive) | 185 µM (inactive) | > 500 µM (inactive) | > 500 µM (inactive) | 466 µM (inactive) | > 500 µM (inactive) | > 500 µM (inactive) | > 323 µM (inactive) | 418 µM (inactive) | 44.5 µM (inactive) | > 500 µM (inactive) | 301 µM (inactive) | > 500 µM (inactive) | > 249 µM (inactive) | – |
| Cc1cc(N(CCC#N)CCC#N)ccc1/N=N/c1cc(Cl)ccc1Cl | 3.39 µM (inactive) | 6.59 µM (inactive) | 6.22 µM (inactive) | 19.5 µM (inactive) | 10.2 µM (inactive) | 20.1 µM (inactive) | – | 13.7 µM (inactive) | 10.6 µM (inactive) | 1.49 µM (inactive) | 16.6 µM (inactive) | – | 13.4 µM (inactive) | 13 µM (inactive) | 14.6 µM (inactive) |
| CC(C)(O)/C=C/C(=O)[C@](C)(O)[C@H]1[C@H](O)C[C@@]2(C)[C@@H]3CC=C4[C@@H](C[C@H](O)C(=O)C4(C)C)[C@]3(C)C(=O)C[C@]12C [CUCURBITACIN D] | 0.262 µM (active) | 0.199 µM (active) | 0.0867 µM (active) | 0.198 µM (active) | 0.0748 µM (active) | 0.0506 µM (active) | 0.163 µM (active) | 0.391 µM (active) | 0.0863 µM (active) | 0.128 µM (active) | – | 0.0895 µM (active) | 0.792 µM (active) | 0.59 µM (active) | 0.1 µM (active) |
| CC1NC(=O)C2=C1C(N)=NC(=O)C2 (stereo not given) | – | > 100 µM (inactive) | > 100 µM (inactive) | – | > 100 µM (inactive) | – | > 100 µM (inactive) | > 100 µM (inactive) | > 100 µM (inactive) | > 100 µM (inactive) | > 100 µM (inactive) | > 100 µM (inactive) | > 100 µM (inactive) | > 100 µM (inactive) | > 100 µM (inactive) |
| O=C(Nc1nc2ncn(CCO)c2c(=O)[nH]1)c1ccccc1 | > 100 µM (inactive) | > 100 µM (inactive) | > 100 µM (inactive) | > 100 µM (inactive) | > 100 µM (inactive) | > 100 µM (inactive) | > 100 µM (inactive) | > 100 µM (inactive) | > 100 µM (inactive) | > 100 µM (inactive) | – | > 100 µM (inactive) | > 100 µM (inactive) | > 100 µM (inactive) | > 100 µM (inactive) |
| CCCCCC[N+](C)(C)Cc1ccc(C[N+](C)(C)CCCCCC)cc1 | 4.33 µM (inactive) | 1.75 µM (inactive) | 1.16 µM (inactive) | 3.05 µM (inactive) | 4.69 µM (inactive) | 11.2 µM (inactive) | 6.56 µM (inactive) | 1.94 µM (inactive) | 4.42 µM (inactive) | 1.74 µM (inactive) | 3.84 µM (inactive) | 2.64 µM (inactive) | 3.49 µM (inactive) | 2.8 µM (inactive) | 3.52 µM (inactive) |
| Cc1cc(O)nc(NNC(C#N)c2ccc(O)cc2)n1 (stereo not given) | > 100 µM (inactive) | > 100 µM (inactive) | 83.8 µM (inactive) | > 100 µM (inactive) | > 100 µM (inactive) | – | > 100 µM (inactive) | > 100 µM (inactive) | > 100 µM (inactive) | > 100 µM (inactive) | – | > 100 µM (inactive) | > 100 µM (inactive) | > 100 µM (inactive) | > 100 µM (inactive) |
| CN[C@@H](C)[C@@H](NC)c1ccccc1 | – | > 100 µM (inactive) | > 100 µM (inactive) | – | > 100 µM (inactive) | > 100 µM (inactive) | – | > 100 µM (inactive) | > 100 µM (inactive) | > 100 µM (inactive) | > 100 µM (inactive) | > 100 µM (inactive) | > 100 µM (inactive) | > 100 µM (inactive) | > 100 µM (inactive) |
| CCNCCCCNCC | 736 µM (inactive) | > 3600 µM (inactive) | > 3750 µM (inactive) | > 3750 µM (inactive) | > 37.5 µM (inactive) | > 3750 µM (inactive) | > 2090 µM (inactive) | > 2930 µM (inactive) | > 3750 µM (inactive) | > 3240 µM (inactive) | > 2670 µM (inactive) | 525 µM (inactive) | > 2330 µM (inactive) | > 3750 µM (inactive) | – |
| [N-]=[N+]=CC(=O)CCC(NC(=O)C(CCC(=O)C=[N+]=[N-])NC(=O)CCC(N)C(=O)O)C(=O)O (stereo not given) | > 100 µM (inactive) | > 100 µM (inactive) | > 100 µM (inactive) | > 100 µM (inactive) | > 100 µM (inactive) | > 100 µM (inactive) | > 100 µM (inactive) | > 100 µM (inactive) | > 100 µM (inactive) | > 100 µM (inactive) | > 100 µM (inactive) | > 100 µM (inactive) | > 100 µM (inactive) | > 100 µM (inactive) | – |
